Source: US8889699B2, “5-fluorouracil derivative” (Delta-Fly Pharma, Inc., priority 2009, dated 2014)
Where two headings read alike, the source gives them in different places.

Biological target: T1, DPD (Rattus norvegicus, UniProt O89000)
T1 construct: the obtained supernatant was used as a DPD enzyme solution or an OPRT enzyme solution; from tissue; host or cells: liver of 8-week old SD rat; 105,000 g supernatant of homogenate
T1 sequence (O89000 1-1025): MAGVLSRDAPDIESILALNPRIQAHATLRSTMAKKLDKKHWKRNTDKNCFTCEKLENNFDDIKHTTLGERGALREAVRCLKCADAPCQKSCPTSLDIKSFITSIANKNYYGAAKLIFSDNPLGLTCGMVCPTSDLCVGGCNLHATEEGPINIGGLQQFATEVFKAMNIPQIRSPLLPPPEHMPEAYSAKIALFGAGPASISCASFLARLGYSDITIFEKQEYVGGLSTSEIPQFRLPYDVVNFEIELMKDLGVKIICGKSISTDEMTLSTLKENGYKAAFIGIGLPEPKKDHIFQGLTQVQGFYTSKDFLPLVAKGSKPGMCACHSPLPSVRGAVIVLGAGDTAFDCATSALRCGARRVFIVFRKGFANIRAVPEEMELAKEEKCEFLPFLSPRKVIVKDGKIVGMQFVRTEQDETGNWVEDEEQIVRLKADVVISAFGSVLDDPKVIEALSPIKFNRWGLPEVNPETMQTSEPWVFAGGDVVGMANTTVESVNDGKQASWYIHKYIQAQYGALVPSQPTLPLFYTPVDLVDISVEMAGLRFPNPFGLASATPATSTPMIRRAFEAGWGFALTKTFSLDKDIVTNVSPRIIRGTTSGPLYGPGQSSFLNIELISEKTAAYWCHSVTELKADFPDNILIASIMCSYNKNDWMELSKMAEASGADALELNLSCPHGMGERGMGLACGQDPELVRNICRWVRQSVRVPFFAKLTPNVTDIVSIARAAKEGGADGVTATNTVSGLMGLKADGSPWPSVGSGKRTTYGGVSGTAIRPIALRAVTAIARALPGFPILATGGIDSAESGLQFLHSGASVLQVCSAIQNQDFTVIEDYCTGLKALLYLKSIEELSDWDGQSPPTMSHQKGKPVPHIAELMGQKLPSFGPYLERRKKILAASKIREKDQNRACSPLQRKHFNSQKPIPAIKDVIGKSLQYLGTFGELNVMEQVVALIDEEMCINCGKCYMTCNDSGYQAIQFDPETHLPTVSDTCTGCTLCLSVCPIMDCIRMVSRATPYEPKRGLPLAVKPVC
Test: DPD inhibitory action in vitro (enzyme reaction, tritium-labeled 5-FU as substrate)
Assay type: biochemical
Description: The resulting product was diluted to concentrations of 1 mM, 100 μM, 10 μM, and 1 μM with a 10 mM potassium phosphate buffer solution (pH 6.0), thereby obtaining Test Liquids 1. The obtained Test Liquids 1 were separately added to the enzyme reaction solution described below to give final concentrations of 200 μM, 20 μM, 2 μM, and 0.2 μM. • (b) Test liquid preparation (2): As a DPD inhibitor, 5-chloro-2,4-dihydroxypyridine (CDHP; gimeracil) was dissolved to a concentration of 10 mM in a 10 mM potassium phosphate buffer solution (pH 6.0). The resulting product was diluted to concentrations of 1 mM, 100 μM, 10 μM, and 1 μM, thereby obtaining Test Liquids 2. The obtained Test Liquids 2 were separately added to the enzyme reaction solution to give final concentrations of 200 μM, 20 μM, 2 μM, and 0.2 μM. • (c) Test liquid preparation (3): As an OPRT inhibitor, citrazinic acid (Citra. A.) was dissolved to a concentration of 10 mM in 20 mM trishydroxyaminomethane-hydrochloric buffer solution (pH 8.0). Thereafter, the resulting product was diluted to concentrations of 1 mM, 100 μM, and 10 μM with a 10 mM potassium phosphate buffer solution, thereby obtaining Test Liquids (3). The obtained Test Liquids 3 were separately added to the enzyme reaction solution to give final concentrations of 200 μM, 20 μM, and 2 μM. • (d) Preparation of enzyme solution: The liver of an 8-week old SD rat was used as a DPD enzyme source, while human tumor cells that had been transplanted into a nude mouse and proliferated therein were used as an OPRT enzyme source. Specifically, immediately after a rat liver or successively-transplanted human tumor cells were extracted, a 50-mM tris-hydrochloric acid buffer solution (pH 8.0) containing 0.25 M saccharose, 5 mM magnesium chloride, and 1 mM dithreitol was added thereto to a concentration of 25% (w/v) and homogenized. Thereafter, ultracentrifugation was performed at 105,000 g for 60 minutes, and the obtained supernatant was used as a DPD enzyme solution or an OPRT enzyme solution. • (e) Enzyme reaction: A DPD enzyme reaction was carried out in accordance with the method of Tatsumi et al. (Gann, 78: 748-755 (1987)) using 5-FU labeled with tritium as a substrate. An OPRT enzyme reaction was carried out in accordance with the method of Shirasaka et al. (Cancer Res., 53: 4004-4009 (1993)) using 5-FU labeled with tritium as a substrate. Then, the activity of a control group (with no test compound) and test compound groups was measured. The percent inhibition of the test compound relative to DPD or OPRT was calculated using the following formula: [1-(the enzyme activity with the test compound/the enzyme activity of the control group)]×100(%).
The resulting product was diluted to concentrations of 1 mM, 100 μM, 10 μM, and 1 μM with a 10 mM potassium phosphate buffer solution (pH 6.0), thereby obtaining Test Liquids 1. The obtained Test Liquids 1 were separately added to the enzyme reaction solution described below to give final concentrations of 200 μM, 20 μM, 2 μM, and 0.2 μM. • (b) Preparation of enzyme solution: The liver of an 8-week old SD rat was used as a DPD enzyme source, while human tumor cells that had been transplanted into a nude mouse and proliferated therein were used as an OPRT enzyme source. Specifically, immediately after a rat liver or successively-transplanted human tumor cells were extracted, a 50-mM tris-hydrochloric acid buffer solution (pH 8.0) containing 0.25 M saccharose, 5 mM magnesium chloride, and 1 mM dithreitol was added thereto to a concentration of 25% (w/v) and homogenized. Thereafter, ultracentrifugation was performed at 105,000 g for 60 minutes, and the obtained supernatant was used as a DPD enzyme solution or an OPRT enzyme solution. • (c) Enzyme reaction: A DPD enzyme reaction was carried out in accordance with the method of Tatsumi et al. (Gann, 78: 748-755 (1987)) using 5-FU labeled with tritium as a substrate. […]

inhibition at 0.2 µM (0.2 μM, Table 2, read-out: DPD Inhibition (%)): 44.8%
inhibition at 2 µM (2 μM, Table 2, read-out: DPD Inhibition (%)): 85.1%
DPD Inhibitory Activity: Activity (Conc. 0.2 μM, Table 1): 0.597 nmol/mL/min
inhibition at 0.2 µM (Conc. 0.2 μM, Table 1, read-out: DPD Inhibitory Activity: Inhibition): 40.8%
DPD Inhibitory Activity: Activity (Conc. 2 μM, Table 1): 0.195 nmol/mL/min
inhibition at 2 µM (Conc. 2 μM, Table 1, read-out: DPD Inhibitory Activity: Inhibition): 80.7%
DPD Inhibitory Activity: Activity (Conc. 20 μM, Table 1): 0.074 nmol/mL/min
inhibition at 20 µM (Conc. 20 μM, Table 1): 92.7%
DPD Inhibitory Activity: Activity (Conc. 200 μM, Table 1): 0.106 nmol/mL/min
inhibition at 200 µM (Conc. 200 μM, Table 1): 89.5%
SMILES: Oc1cc(O)c(Cl)cn1 [CDHP, 5-chloro-2,4-dihydroxypyridine, reference compound]
